The results in this text go back to article PMC12655682, “Screening-Identified Oxazole-4-Carboxamide KB-2777 Exhibits In Vitro Anti-Coronavirus Activity” (Pharmaceutics, 2025).

Each structure is given as a SMILES string. Read-outs that look alike come from different tables or passages of the source.

Data set [1] relates to HCoV-NL63. Put plainly: Primary antiviral screening (virus inhibition) in HCoV-NL63-infected LLC-MK2 cells. The format is cell-based, Human coronavirus NL63. The following applies: for SI (=CC50/EC50): HCoV-NL63/LLC-MK2; for antiviral effect: HCoV-NL63/LLC-MK2, up to 25 µM. The protocol:
For antiviral activity, cells in 96-well plates were infected and treated with test compounds as indicated and incubated for 48–72 h. Cell viability was quantified by WST (EZ-Cytox) at 450 nm on the same reader. Cytoprotective effect was calculated by normalizing to infected DMSO controls and converting to percent protection: % Protection = ((V_drug + virus − V_virus-only)/(V_mock − V_virus-only)) × 100.
We screened 11 oxazole-4-carboxamide derivatives (Figure 1) against HCoV-NL63 in LLC-MK2 cells and quantified antiviral activity and cytotoxicity (Figure 2). Several derivatives inhibited NL63 with distinct selectivity profiles. […] Visible crystals or precipitates formed at ≥50 µM without loss of viability or morphological change; therefore, downstream assays were performed at ≤25 µM.

The nature of data set [2]: Cytotoxicity (EZ-Cytox WST) in LLC-MK2 cells. The following applies: rhesus monkey, 72 h exposure. The format is cell-based. The protocol:
Cells were seeded at 2 × 10^4 cells per well in 96-well plates and, after overnight attachment, exposed to test compounds for 72 h in maintenance medium. The final DMSO concentration was ≤0.1% (v/v) for all conditions, including vehicle controls. Cell viability was quantified using EZ-Cytox WST reagent (DoGenBio, Seoul, Republic of Korea) according to the manufacturer’s instructions; absorbance was read at 450 nm on a SpectraMax i3x microplate reader (Molecular Devices, San Jose, CA, USA). Viability for each well was normalized to the mean of vehicle-treated (mock) controls on the same plate and expressed as percent viability. Each condition included technical replicates (n = 3) per experiment. Concentration–response data from ≥3 independent experiments were fit to a four-parameter logistic (4PL) model in GraphPad Prism 10.1.2 (GraphPad Software, San Diego, CA, USA) (log10-transformed concentrations; bottom and top unconstrained).

Data set [3] deals with HCoV-NL63. Put plainly: Combination (concentration matrix, ZIP synergy) HCoV-NL63/LLC-MK2. The format is cell-based, Human coronavirus NL63. The following applies: HCoV-NL63/LLC-MK2, alone. The procedure: Concentration matrices were generated within the non-cytotoxic range for KB-2777 + nirmatrelvir (HCoV-NL63/LLC-MK2) and KB-2777 + GS-441524 (HCoV-OC43/Vero E6). Antiviral activity was measured at 48 h post-infection. Interaction surfaces and ZIP synergy scores were computed using SynergyFinder (v3) with default normalization (virus + DMSO control = 0% inhibition). Heatmaps and δ-surfaces were exported directly from SynergyFinder.

[4] abbreviates: Human coronavirus NL63, LLC-MK2, HCoV-NL63/LLC-MK2, primary screen, read-out: EC50.
[5] abbreviates: HCoV-NL63/LLC-MK2, primary screen, read-out: EC50.
Setting [6] is: Human coronavirus NL63, LLC-MK2, HCoV-NL63/LLC-MK2, primary screen.

On to `COC(=O)[C@H](C)NC(=O)c1nc(-c2ccc(C(F)(F)F)cc2)oc1-c1ccc(SC)cc1` [KB-2738], for which, in the data set with HCoV-NL63 [1], the “SI (=CC50/EC50)” value is on record as 2.84. In addition, the EC50 (usually the concentration that produces a half-maximal response) with HCoV-NL63 [1] (setting [4]) was found to be 7.7 µM. The midpoint of cytotoxicity in data set [2], the CC50 at 72 h, lay at 21.8 µM.
On to `COC(=O)[C@H](C)NC(=O)c1nc(-c2ccc(C(F)(F)F)cc2)oc1-c1cccc(SC)c1` [KB-2742], for which, in the data set on HCoV-NL63 [1], the “SI (=CC50/EC50)” value is less than 5.40. The EC50 with HCoV-NL63 [1] (setting [4]) was 4.63 µM. The CC50 (usually the concentration at which the toxic effect on the cells reaches its halfway point) at 72 h in data set [2] was less than 25 µM.
For `COC(=O)[C@H](C)NC(=O)c1nc(-c2ccc(C(F)(F)F)cc2)oc1-c1cccc(OC)c1` [KB-2767], the “SI (=CC50/EC50)” value in the data set with HCoV-NL63 [1] is listed as 3.33. The half-maximal effective concentration (EC50) with HCoV-NL63 [1] (setting [4]) is 9.26 µM. Also, the CC50 at 72 h in data set [2] turned out to be 30.8 µM.
Turning to `COC(=O)[C@H](CC(C)C)NC(=O)c1nc(-c2ccc(C(F)(F)F)cc2)oc1-c1cccc(SC)c1` [KB-2768], the “SI (=CC50/EC50)” value with HCoV-NL63 [1] amounted to 5.12. Besides, in the data set on HCoV-NL63 [1] (setting [4]), the concentration for a half-maximal effect (EC50) is 6.66 µM. The compound also returned a CC50 at 72 h in data set [2] of 34.1 µM.
As to `CSc1cccc(-c2oc(-c3ccc(C(F)(F)F)cc3)nc2C(=O)N[C@@H](C)C(N)=O)c1` [KB-2769], the “SI (=CC50/EC50)” value in the data set with HCoV-NL63 [1] is reported as less than 2.67. For the same compound, the EC50 with HCoV-NL63 [1] (setting [4]) was 2.34 µM. For the same compound, in data set [2], the CC50 at 72 h is less than 6.25 µM.
For the compound `CSc1cccc(-c2oc(-c3ccc(C(F)(F)F)cc3)nc2C(=O)N[C@@H](CC(C)C)C(N)=O)c1` [KB-2771], the results for the EC50 in the data set with HCoV-NL63 [1] (setting [5]) and in the data set with HCoV-NL63 [1] (setting [6]) were 4.27 µM and 4 to 5 µM, respectively. The cytotoxic concentration (CC50) at 72 h in data set [2] is less than 25 µM.
On to `COC(=O)C(CC1CCNC1=O)NC(=O)c1nc(-c2ccc(C(F)(F)F)cc2)oc1-c1cccc(SC)c1` (stereo not shown) [KB-2772], for which, in the data set on HCoV-NL63 [1], the antiviral effect entry was “no detectable antiviral effect”. This compound had a CC50 at 72 h in data set [2] greater than 50 µM.
`COC(=O)C(CC1CCNC1=O)NC(=O)c1nc(-c2ccc(C(F)(F)F)cc2)oc1-c1cccc(OC)c1` (stereo not shown) [KB-2773]: in the data set on HCoV-NL63 [1], the antiviral effect result was “no detectable antiviral effect”. Besides, the CC50 at 72 h in data set [2] was less than 25 µM.
On to `COC(=O)[C@H](CC(C)C)NC(=O)c1nc(-c2ccc(C(F)(F)F)cc2)oc1-c1cccc(OC)c1` [KB-2774], for which the EC50 in the data set with HCoV-NL63 [1] (setting [5]) was 4.39 µM; in the data set with HCoV-NL63 [1] (setting [6]), 4 to 5 µM. The same compound yielded a CC50 at 72 h in data set [2] of 25.2 µM.
With `COc1cccc(-c2oc(-c3ccc(C(F)(F)F)cc3)nc2C(=O)N[C@@H](C)C(N)=O)c1` [KB-2775], in the data set on HCoV-NL63 [1], the antiviral effect result is listed as “no detectable antiviral effect”. In data set [2], this compound had a CC50 at 72 h of 3.12 µM.
In the case of `CC(C)(C)[C@H](NC(=O)C(F)(F)F)C(=O)N1C[C@H]2[C@@H]([C@H]1C(=O)N[C@H](C#N)C[C@@H]1CCNC1=O)C2(C)C` [nirmatrelvir], the “antiviral activity of the single agent in the combination assay” value with HCoV-NL63 [3] is “limited activity”.
